Test results published in patent publication EP3072514A1, “Novel oral anticoagulants (NOACs) for preventing development and aggravation of atrial fibrillation” (Université Pierre et Marie Curie - Paris 6 (UPMC), priority 2015, dated 2016).

What was measured:
α-MHC = assay: mRNA expression by real-time qPCR in atria and ventricle of I/R rats; type: in vivo, Male OFA Sprague-dawley rats
Description: • Figure 1 is a combination of two graphs showing left atrium (LA) area after one month of treatment with DTI Dabigatran (A) or S35792 (B). Vehicle (V) is 60% H2O/40% PEG 300 for dabigatran and saline for S35972. Treatment of rats started just after thoracotomy without (Sham) or with occlusion of left coronary artery followed by reperfusion (I/R). […] Vehicle (V) is 60% H2O/40% PEG 300 for dabigatran and saline for S35972. Treatment of rats started just after thoracotomy without (Sham) or with occlusion of left coronary artery followed by reperfusion (I/R). Results are presented as mean +/- S.E.M. * P<0.05; ** P<0.001, *** P<0.001 vs Sham; #P<0.05 vs untreated I/R. • Figure 3 is a combination of two graphs showing thrombin time (TT), which reflects anticoagulant activity, and plasma concentrations of Dabigatran (A) and S35792 (B) in rats after throracotomy with occlusion of left coronary artery followed by reperfusion (I/R). Vehicle (V) is 60% H2O/40% PEG 300 for dabigatran and saline for S35972. Tests were carried out on blood collected by cardiac puncture at sacrifice (i.e. for Dabigatran, 90 minutes after last oral administration). DTI plasma levels are quantified using LC-MS/MS. TT are expressed as mean +/- S.E.M with reference to the mean value of sham animals that underwent thoracotomy only. *** P<0.001 vs untreated I/R. • Figure 4 is a combination of three graphs showing left atrium (LA) area (A) and diameter (B) and left ventricle end-diastolic (LVED) diameter (C) after two months of treatment with S35972. Treatment of rats started just after thoracotomy without (Sham) or with occlusion of left coronary artery followed by reperfusion (I/R). LA area was measured by bidimensional echocardiography. LA and LVED diameters were measured in time-motion mode. Results are presented as mean +/- S.E.M. *P<0.05, **P<0.01 and *** P<0.001 vs Sham; ^#P<0.05 ^###P<0.001 vs untreated I/R. • Figure 5 is a graph showing the impact of S35972 administration during two months on the duration of an episode of AF in rats undergone thoracotomy without (Sham) or with occlusion of left coronary artery followed by reperfusion (I/R). AF duration is measured as the time between the end of the electric stimulation and the return to sinusoidal rhythm. […] Rats undergone thoracotomy without (Sham) or with occlusion of left coronary artery followed by reperfusion (I/R). Expression of mRNA was measured with real-time qPCR. […] Expression of mRNA was measured with real-time qPCR. […] Expression of mRNA was measured with real-time qPCR. […] LA area was measured by bidimensional echocardiography. LVED and LA diameters were measured in time-motion mode. […] AF duration is measured as the time between the end of the electric stimulation and return to sinusoidal rhythm. […]

[1] = Plasma concentration by LC-MS/MS in I/R rats; design: species or system Male OFA Sprague-dawley rats; details: rat, in vivo, sc
Description: (§1) • Figure 1 is a combination of two graphs showing left atrium (LA) area after one month of treatment with DTI Dabigatran (A) or S35792 (B). Vehicle (V) is 60% H2O/40% PEG 300 for dabigatran and saline for S35972. Treatment of rats started just after thoracotomy without (Sham) or with occlusion of left coronary artery followed by reperfusion (I/R). Results are presented as mean +/- S.E.M, *P<0.05, **P<0.01 and *** P<0.001 vs Sham; ^##P<0.01 and ^###P<0.001 vs untreated I/R. • Figure 2 is a combination of graphs showing left ventricular end-diastolic (LVED) diameter and fractional shortening (FS) after one month of treatment with Dabigatran (A) or S35792 (B). Vehicle (V) is 60% H2O/40% PEG 300 for dabigatran and saline for S35972. Treatment of rats started just after thoracotomy without (Sham) or with occlusion of left coronary artery followed by reperfusion (I/R). Results are presented as mean +/- S.E.M. * P<0.05; ** P<0.001, *** P<0.001 vs Sham; #P<0.05 vs untreated I/R. • Figure 3 is a combination of two graphs showing thrombin time (TT), which reflects anticoagulant activity, and plasma concentrations of Dabigatran (A) and S35792 (B) in rats after throracotomy with occlusion of left coronary artery followed by reperfusion (I/R). Vehicle (V) is 60% H2O/40% PEG 300 for dabigatran and saline for S35972. […] DTI plasma levels are quantified using LC-MS/MS. TT are expressed as mean +/- S.E.M with reference to the mean value of sham animals that underwent thoracotomy only. *** P<0.001 vs untreated I/R. • Figure 4 is a combination of three graphs showing left atrium (LA) area (A) and diameter (B) and left ventricle end-diastolic (LVED) diameter (C) after two months of treatment with S35972. […] LA area was measured by bidimensional echocardiography. LA and LVED diameters were measured in time-motion mode. […] AF duration is measured as the time between the end of the electric stimulation and the return to sinusoidal rhythm. […] Expression of mRNA was measured with real-time qPCR. […] Expression of mRNA was measured with real-time qPCR. […]

HB-EGF = assay: mRNA expression by real-time qPCR in atria and ventricle of I/R rats; type: in vivo, Male OFA Sprague-dawley rats; details: 2 months administration
Description: (§2) • Figure 1 is a combination of two graphs showing left atrium (LA) area after one month of treatment with DTI Dabigatran (A) or S35792 (B). Vehicle (V) is 60% H2O/40% PEG 300 for dabigatran and saline for S35972. Treatment of rats started just after thoracotomy without (Sham) or with occlusion of left coronary artery followed by reperfusion (I/R). Results are presented as mean +/- S.E.M, *P<0.05, **P<0.01 and *** P<0.001 vs Sham; ^##P<0.01 and ^###P<0.001 vs untreated I/R. • Figure 2 is a combination of graphs showing left ventricular end-diastolic (LVED) diameter and fractional shortening (FS) after one month of treatment with Dabigatran (A) or S35792 (B). Vehicle (V) is 60% H2O/40% PEG 300 for dabigatran and saline for S35972. Treatment of rats started just after thoracotomy without (Sham) or with occlusion of left coronary artery followed by reperfusion (I/R). Results are presented as mean +/- S.E.M. * P<0.05; ** P<0.001, *** P<0.001 vs Sham; #P<0.05 vs untreated I/R. • Figure 3 is a combination of two graphs showing thrombin time (TT), which reflects anticoagulant activity, and plasma concentrations of Dabigatran (A) and S35792 (B) in rats after throracotomy with occlusion of left coronary artery followed by reperfusion (I/R). Vehicle (V) is 60% H2O/40% PEG 300 for dabigatran and saline for S35972. Tests were carried out on blood collected by cardiac puncture at sacrifice (i.e. for Dabigatran, 90 minutes after last oral administration). DTI plasma levels are quantified using LC-MS/MS. TT are expressed as mean +/- S.E.M with reference to the mean value of sham animals that underwent thoracotomy only. *** P<0.001 vs untreated I/R. • Figure 4 is a combination of three graphs showing left atrium (LA) area (A) and diameter (B) and left ventricle end-diastolic (LVED) diameter (C) after two months of treatment with S35972. Treatment of rats started just after thoracotomy without (Sham) or with occlusion of left coronary artery followed by reperfusion (I/R). LA area was measured by bidimensional echocardiography. LA and LVED diameters were measured in time-motion mode. Results are presented as mean +/- S.E.M. *P<0.05, **P<0.01 and *** P<0.001 vs Sham; ^#P<0.05 ^###P<0.001 vs untreated I/R. • Figure 5 is a graph showing the impact of S35972 administration during two months on the duration of an episode of AF in rats undergone thoracotomy without (Sham) or with occlusion of left coronary artery followed by reperfusion (I/R). AF duration is measured as the time between the end of the electric stimulation and the return to sinusoidal rhythm. Results are presented as mean +/- S.E.M, *P<0.05 vs Sham; ^##P<0.01 vs untreated I/R, • Figure 6 is a combination of graphs showing the impact of treatments with 25 mg/kg/d dabigatran for 4 weeks and 6 mg/kg/d S35972 for 8 weeks on atrial (A) and ventricular (B) expression of myosin heavy chain (MHC) isoforms. Rats undergone thoracotomy without (Sham) or with occlusion of left coronary artery followed by reperfusion (I/R). Expression of mRNA was measured with real-time qPCR. Results are presented as mean +/- S.E.M. *P<0.05, **P<0.01 vs Sham; #P<0.05 vs untreated I/R. • Figure 7 is a combination of graphs showing the impact of 2 months S35972 administration on the expression of the hypertrophic markers, brain and atrial natriuretic peptides (BNP and ANP) in atria (A) and ventricle (B). Rats undergone thoracotomy without (Sham) or with occlusion of left coronary artery followed by reperfusion (I/R). Expression of mRNA was measured with real-time qPCR. Results are presented as mean +/- S.E.M. *P<0.05, ***P<0.001 vs Sham; #P<0.05, ##P<0.01 vs untreated I/R. • Figure 8 is a combination of graphs showing the impact of 2 months S35972 administration on the expression of fibrotic markers, plasminogen activator inhibitor 1 (PAI-1, A) and heparin-binding epidermal growth factor (HB-EGF, B) in atria and ventricle. Rats undergone thoracotomy without (Sham) or with occlusion of left coronary artery followed by reperfusion (I/R). […]

PAI-1 = assay: as above; type: in vivo, Male OFA Sprague-dawley rats; details: 2 months administration
Description: as §2

ANP = assay: as above; type: in vivo, Male OFA Sprague-dawley rats; details: 6 mg/kg/day, 2 months
Description: as §2

BNP = assay: as above; type: in vivo, Male OFA Sprague-dawley rats; details: 6 mg/kg/day, 2 months
Description: as §2

paroxysmal AF = assay: Duration of an AF episode induced by rapid stimulation of the left atrium with an esophageal electrode in I/R rats; type: in vivo, Male OFA Sprague-dawley rats; details: 6 mg/kg/day
Description: as §1, with “(B).” for “(B). Vehicle (V) is 60% H2O/40% PEG 300 for dabigatran and saline for S35972. Treatment of rats started just after thoracotomy without (Sham) or with occlusion of left coronary artery followed by reperfusion (I/R). Results are presented as mean +/- S.E.M. * P<0.05; ** P<0.001, *** P<0.001 vs Sham; #P<0.05 vs untreated I/R. • Figure 3 is a combination of two graphs showing thrombin time (TT), which reflects anticoagulant activity, and plasma concentrations of Dabigatran (A) and S35792 (B) in rats after throracotomy with occlusion of left coronary artery followed by reperfusion (I/R). Vehicle (V) is 60% H2O/40% PEG 300 for dabigatran and saline for S35972.”

Substance: 4-oxo-3-(2-pyridin-2-ylethylamino)-4,6,7,8-tetrahydro-pyrrolo[1,2-a]pyrazine-6-carboxylic acid 2-ethylcarbamoyl methoxy-benzylamide [S35972]
- expression of α-MHC (mRNA) in left atrium (α-MHC; atrium, 6 mg/kg/day for 8 weeks post I/R): without impacting the expression of α-MHC
- expression of α-MHC (mRNA) in the ventricle (α-MHC; ventricle, 6 mg/kg/day post I/R): without significant impact on the expression of α-MHC
- plasma concentration ([1]; 3 mg/kg/day): 24.1 ± 5.7 ng/mL
- plasma concentration ([1]; 6 mg/kg/day): 57.2 ± 24.4 ng/mL
- induction of HB-EGF mRNA in atria (HB-EGF; atria): prevents the induction of HB-EGF mRNA
- induction of HB-EGF mRNA in ventricles (HB-EGF; ventricles): prevents the induction of HB-EGF mRNA
- mRNA expression of PAI-1 in atria (PAI-1; atria): has an inhibitory effect
- mRNA expression of PAI-1 in ventricles (PAI-1; ventricles): inhibitory effect in atria only
- expression of ANP (mRNA) in the atrium (ANP; atrium): does not impact its expression
- synthesis of ANP (mRNA) in the ventricle (ANP; ventricle): significantly reduces its synthesis
- synthesis of BNP (mRNA) in the atrium (BNP; atrium): prevents the synthesis of BNP
- synthesis of BNP (mRNA) in the ventricle (BNP; ventricle): prevents the synthesis of BNP
- AF duration (paroxysmal AF; administered 1 month post I/R in rats with dilated atria): tends to decrease AF duration
- duration of episode of paroxysmal AF (paroxysmal AF; eight weeks post I/R): decreases the duration of this episode of paroxysmal AF to the control values
